Results published in patent EP3345917A1, “ANTIPROTOZOAL COMPOUNDS” (Bacoba AG, priority 2017, dated 2018).
Non-standard residues stand in square brackets, D forms with d. Residues, ends and D or L forms follow the SMILES beside them. *: point of attachment. Benzenesulfonyl(4-F) = O=S(=O)(c1ccc(F)cc1)*; X10 = O=C(c1ccccc1)[C@H]1CCCC[C@H]1C(=O)*; NH((S)CH(Me)CH2NMe2) = C[C@@H](CN(C)C)N*; Gly(octyl) = CCCCCCCC[C@H](N)C(=O)O; hCha = N[C@@H](CCC1CCCCC1)C(=O)O; X3 = O=C(c1coc(-c2ccccc2)n1)*; NH(CH2)3NMe2 = CN(C)CCCN*; X4 = O=C(C1CCc2ccccc2C1)*; Hexanoyl = CCCCCC(=O)*; Aib = CC(C)(N)C(=O)O; X7 = CN(C)CC(C)(C)N*; X6 = CCCN(CCC)CCN*; βAla = NCCC(=O)O

How the values were obtained:
[1] = test system: intracellular Leishmania donovani (L.don. InMac); experiment: Intracellular Leishmania donovani assay (L.don. InMac); type: cell-based; conditions: In vitro inhibition
Source text: (§1) Tests were done in triplicate.

[2] = test system: Trypanosoma cruzi trypomastigote forms (Tulahuen strain); experiment: Intracellular Trypanosoma cruzi assay in L6-cells, beta-galactosidase/CPRG readout; type: cell-based; conditions: In vitro inhibition, read-out: T.cruzi.
Outline: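 Readout was β-galactosidase cleavage of CPRG, read photometrically at 540 nm after 2–6 h colour development, giving IC50 values. Parasites: LacZ-expressing Tulahuen C2C4 strain grown in rat L6 myoblasts; run in triplicate.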

[3] = test system: Trypanosoma brucei rhodesiense (STIB 900 strain); experiment: Alamar Blue assay against Trypanosoma brucei rhodesiense grown in axenic medium; type: cell-based; conditions: In vitro inhibition, read-out: T.b.rhod.
Outline: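 Alamar Blue-based IC50 determination, in triplicate, on axenically grown STIB 900 trypanosomes. Melarsoprol included as reference.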

[4] = test system: Axenically grown Leishmania donovani amastigotes (strain MHOM/ET/67/L82); experiment: Axenic Leishmania donovani amastigote resazurin assay; type: cell-based; conditions: In vitro inhibition, read-out: L.don. ax
Outline: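 IC50 values derive from resazurin fluorescence (ex 536 nm, em 588 nm), expressed relative to the negative control, after 2-4 hours of plate development. Axenic amastigotes of strain MHOM/ET/67/L82 were used; each test run in triplicate.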

Plasmodium falciparum = experiment: 3H-hypoxanthine incorporation assay against Plasmodium falciparum; type: cell-based; conditions: In vitro inhibition, read-out: P.falc NF5
Procedure: as §1
IC50 values were calculated by linear interpolation.

[5] = Cytotoxicity assay on L6-cells (Alamar Blue); conditions: rat, Cytotox L6, Cytotoxicity against rat myoblast cells (L6)

Structure (SMILES) | IC50 [1] | IC50 [2] | IC50 [3] | IC50 [4] | IC50 (Plasmodium falciparum) | IC50 at 70 h [5]
CCCCCCCC[C@H](NC(=O)[C@@H]1CCCN1C(=O)CCCCC)C(=O)N[C@@H](CC(C)C)C(=O)NC(C)(C)C(=O)N[C@@H](CC(C)C)C(=O)N[C@@H](CC(C)C)C(=O)NC(C)(C)C(=O)NC(C)(C)C(=O)NCCC(=O)NCCN(CCC)CCC [Compound 5888, (2S)-N-[(1S)-1-[(1-{[(1S)-1-{[(1S)-1-{[1-({1-[(2-{[2-(dipropylamino)ethyl]carbamoyl}ethyl)carbamoyl]-1-methylethyl}carbamoyl)-1-methylethyl]carbamoyl}-3-methylbutyl]carbamoyl}-3-methylbutyl]carbamoyl}-1-methylethyl)carbamoyl]-3-methylbutyl]-2-{[(2S)-1-hexanoylpyrrolidin-2-yl]formamido}decanamide] (Hexanoyl-P[Gly(octyl)]L[Aib]LL[Aib][Aib][βAla]-X6) | 14.8 nM | 37.5 nM | 18000 nM | 22700 nM | 35900 nM | 446 nM
CCCCCCCC[C@H](NC(=O)[C@@H]1CCCN1C(=O)CCCCC)C(=O)N[C@@H](CC(C)C)C(=O)NC(C)(C)C(=O)N[C@@H](CC(C)C)C(=O)N[C@@H](CC(C)C)C(=O)NC(C)(C)C(=O)NC(C)(C)C(=O)NCCC(=O)NC(C)(C)CN(C)C [Compound 5889, (2S)-N-[(1S)-1-[(1-{[(1S)-1-{[(1S)-1-{[1-({1-[(2-{[1-(dimethylamino)-2-methylpropan-2-yl]carbamoyl}ethyl)carbamoyl]-1-methylethyl}carbamoyl)-1-methylethyl]carbamoyl}-3-methylbutyl]carbamoyl}-3-methylbutyl]carbamoyl}-1-methylethyl)carbamoyl]-3-methylbutyl]-2-{[(2S)-1-hexanoylpyrrolidin-2-yl]formamido}decanamide] (Hexanoyl-P[Gly(octyl)]L[Aib]LL[Aib][Aib][βAla]-X7) | 86.5 nM | 248 nM | 15.9 nM | 11100 nM | 199 nM | 959 nM
CCCCCCCC[C@H](NC(=O)[C@@H]1CCCN1C(=O)CCCCC)C(=O)N[C@@H](CC(C)C)C(=O)NC(C)(C)C(=O)N[C@@H](CC(C)C)C(=O)N[C@@H](CC(C)C)C(=O)NC(C)(C)C(=O)NC(C)(C)C(=O)NCCC(=O)NCCCN(C)C [Compound 5890, (2S)-N-[(1S)-1-[(1-{[(1S)-1-{[(1S)-1-{[1-({1-[(2-{[3-(dimethylamino)propyl]carbamoyl}ethyl)carbamoyl]-1-methylethyl}carbamoyl)-1-methylethyl]carbamoyl}-3-methylbutyl]carbamoyl}-3-methylbutyl]carbamoyl}-1-methylethyl)carbamoyl]-3-methylbutyl]-2-{[(2S)-1-hexanoylpyrrolidin-2-yl]formamido}decanamide] (Hexanoyl-P[Gly(octyl)]L[Aib]LL[Aib][Aib][βAla]-{NH(CH2)3NMe2}) | 42500 nM | 44 nM | 44200 nM | 0.7 nM | 0.2 nM | 592 nM
CCCCCCCC[C@H](NC(=O)[C@@H]1CCCN1S(=O)(=O)c1ccc(F)cc1)C(=O)N[C@@H](CC(C)C)C(=O)NC(C)(C)C(=O)N[C@@H](CC(C)C)C(=O)N[C@@H](CC(C)C)C(=O)NC(C)(C)C(=O)NC(C)(C)C(=O)NCCC(=O)N[C@@H](C)CN(C)C [Compound 5935, (2S)-N-[(1S)-1-[(1-{[(1S)-1-{[(1S)-1-{[1-({1-[(2-{[(2S)-1-(dimethylamino)propan-2-yl]carbamoyl}ethyl)carbamoyl]-1-methylethyl}carbamoyl)-1-methylethyl]carbamoyl}-3-methylbutyl]carbamoyl}-3-methylbutyl]carbamoyl}-1-methylethyl)carbamoyl]-3-methylbutyl]-2-{[(2S)-1-(4-fluorobenzenesulfonyl)pyrrolidin-2-yl]formamido}decanamide] ({Benzenesulfonyl(4-F)}-P[Gly(octyl)]L[Aib]LL[Aib][Aib][βAla]-{NH((S)CH(Me)CH2NMe2)}) | < 33.5 nM | 33.5 nM | 42400 nM | 14500 nM | 47300 nM | 384 nM
CCCCCC(=O)N1CCC[C@H]1C(=O)N[C@@H](CCC1CCCCC1)C(=O)N[C@@H](CC(C)C)C(=O)NC(C)(C)C(=O)N[C@@H](CC(C)C)C(=O)N[C@@H](CC(C)C)C(=O)NC(C)(C)C(=O)NC(C)(C)C(=O)NCCC(=O)N[C@@H](C)CN(C)C [Compound 5942, (2S)-2-[(2S)-4-cyclohexyl-2-{[(2S)-1-hexanoylpyrrolidin-2-yl]formamido}butanamido]-N-(1-{[(1S)-1-{[(1S)-1-{[1-({1-[(2-{[(2S)-1-(dimethylamino)propan-2-yl]carbamoyl}ethyl)carbamoyl]-1-methylethyl}carbamoyl)-1-methylethyl]carbamoyl}-3-methylbutyl]carbamoyl}-3-methylbutyl]carbamoyl}-1-methylethyl)-4-methylpentanamide] (Hexanoyl-P[hCha]L[Aib]LL[Aib][Aib][βAla]-{NH((S)CH(Me)CH2NMe2)}) | < 35.4 nM | 4 nM | 0.3 nM | 42600 nM | 0.9 nM | 148 nM
CCCCCCCC[C@H](NC(=O)c1coc(-c2ccccc2)n1)C(=O)N[C@@H](CC(C)C)C(=O)NC(C)(C)C(=O)N[C@@H](CC(C)C)C(=O)N[C@@H](CC(C)C)C(=O)NC(C)(C)C(=O)NC(C)(C)C(=O)NCCC(=O)N[C@@H](C)CN(C)C [Compound 5943, (2S)-N-[(1S)-1-[(1-{[(1S)-1-{[(1S)-1-{[1-({1-[(2-{[(2S)-1-(dimethylamino)propan-2-yl]carbamoyl}ethyl)carbamoyl]-1-methylethyl}carbamoyl)-1-methylethyl]carbamoyl}-3-methylbutyl]carbamoyl}-3-methylbutyl]carbamoyl}-1-methylethyl)carbamoyl]-3-methylbutyl]-2-[(2-phenyl-1,3-oxazol-4-yl)formamido]decanamide] (X3-[Gly(octyl)]L[Aib]LL[Aib][Aib][βAla]-{NH((S)CH(Me)CH2NMe2)}) | < 36.1 nM | 156 nM | 0.5 nM | 18700 nM | 15.3 nM | 552 nM
CCCCCCCC[C@H](NC(=O)C1CCc2ccccc2C1)C(=O)N[C@@H](CC(C)C)C(=O)NC(C)(C)C(=O)N[C@@H](CC(C)C)C(=O)N[C@@H](CC(C)C)C(=O)NC(C)(C)C(=O)NC(C)(C)C(=O)NCCC(=O)N[C@@H](C)CN(C)C (stereo partly drawn) [Compound 5944, (2S)-N-[(1S)-1-[(1-{[(1S)-1-{[(1S)-1-{[1-({1-[(2-{[(2S)-1-(dimethylamino)propan-2-yl]carbamoyl}ethyl)carbamoyl]-1-methylethyl}carbamoyl)-1-methylethyl]carbamoyl}-3-methylbutyl]carbamoyl}-3-methylbutyl]carbamoyl}-1-methylethyl)carbamoyl]-3-methylbutyl]-2-[(1,2,3,4-tetrahydronaphthalen-2-yl)formamido]decanamide] (X4-[Gly(octyl)]L[Aib]LL[Aib][Aib][βAla]-{NH((S)CH(Me)CH2NMe2)}) | < 36.5 nM | 5 nM | 0.1 nM | 0.6 nM | 42500 nM | 137 nM
CCCCCCCC[C@H](NC(=O)[C@@H]1CCCC[C@@H]1C(=O)c1ccccc1)C(=O)N[C@@H](CC(C)C)C(=O)NC(C)(C)C(=O)N[C@@H](CC(C)C)C(=O)N[C@@H](CC(C)C)C(=O)NC(C)(C)C(=O)NC(C)(C)C(=O)NCCC(=O)N[C@@H](C)CN(C)C [Compound 5945, (2S)-2-{[(1R,2S)-2-benzoylcyclohexyl]formamido}-N-[(1S)-1-[(1-{[(1S)-1-{[(1S)-1-{[1-({1-[(2-{[(2S)-1-(dimethylamino)propan-2-yl]carbamoyl}ethyl)carbamoyl]-1-methylethyl}carbamoyl)-1-methylethyl]carbamoyl}-3-methylbutyl]carbamoyl}-3-methylbutyl]carbamoyl}-1-methylethyl)carbamoyl]-3-methylbutyl]decanamide] (X10-[Gly(octyl)]L[Aib]LL[Aib][Aib][βAla]-{NH((S)CH(Me)CH2NMe2)}) | < 34.7 nM | 34.3 nM | 0.4 nM | 42700 nM | 42600 nM | 144 nM
